This test concerns microbial load on the hands. As to the kind of experiment: hand disinfectant experiment according to EN 1500. Type of test: in vivo. To be noted: EN 1500, six samples per product; reference 60% 2-propanol (vol/vol). An excerpt:
The state of the art for hand disinfectants is described by the test methods, in which an agent is examined in regard to its efficiency. Currently, all agents, which are to be approved for hygienic hand disinfection have to be examined according to standard EN1500. The EN 1500 uses as a microbicidal reference substance 60% 2-propanol (vol/vol) in water. […] In these cases, the effectiveness of alcoholic hand disinfectants with or without the addition of quaternary ammonium compounds is more or less the same. It has also been known that products are possible, which contain as an active agent about 4% of a quaternary ammonium compound or a guanidine and contain, apart from this compound, solubilizers like propylene glycol, butylene glycol and other polyalcohols, so that the products have a degreasing effect on the skin. Unfortunately, all of these products were effective only according to the new standards EN 1499, hand decontamination, which have to meet less stringent requirements than the EN 1500. Agents, which only have to meet the requirements of the EN1499 have to be better than soap in a comparative test. Whereas for passing the EN 1500, in general, a microbial reduction of 4.5 log increments (i.e., a 4.5 log reduction) is required, passing the EN 1499 in general requires 3 log increments (i.e., a 3 log reduction). This is only 3% of the reduction required by the EN 1500. […]

Each structure is given as a SMILES string.

Turning to `CC(C)O` [60% 2-propanol (vol/vol), 2-propanol], the Reduction factor is listed as 4.1-4.6.
